Data published in patent US6458835B2, “Method of inhibiting or treating chemotherapy-induced hair loss” (Bristol-Myers Squibb Company, priority 1997, dated 2002).

Columns and labels:
C3H mice = assay: Hair growth (hair follicle stimulation) in C3H mouse model, topical application; assay type: in vivo; conditions: for percent of animals showing hair follicle stimulation / time of onset of follicle stimulation: 2% solution topical 1x daily; for time of onset of follicle stimulation: male C3H mice, 5 days per week
Excerpt: The two enantiomers were compared topically for hair growth in C3H mice.
The C3H mouse is a useful model for studying hair growth. Its usefulness rests with the fact that skin pigmentation of this animal is provided by the melanocytes of the hair follicle and not the epidermis. In the telogen or the resting phase of the hair follicle, the skin is pink. In the earliest phase of anagen or the growth phase, there is sudden graying of the skin and as the anagen phase progresses the skin becomes darker in color. In this study, visual observation was used as an in vivo assay of anagen induction. Furthermore as anagen develops, the skin thickness increases from a thin telogen skin to a measurably thickened anagen skin. Thus, recording the skin color and microscopic thickness of skin from these mice offers a sensitive, quantifiable and convenient method of assessing the phases of hair growth.
Groups of 20, six to seven week old male C3H mice with hair follicles in the resting phase of hair growth were used. At this stage in their life, the hair follicles remain in the telogen phase for up to 30 days or longer. This provides an adequate window of time to screen drugs. […] This stimulation is manifested by the shortening of the telogen phase of the hair follicle cycle.
Animals were anesthetized with ketamine/rompun (100 mg/Kg and 12 mg/Kg) IP and the hair over a defined dorsal area were closely clipped.
The vehicle employed was ethanol/propylene glycol/water, 60/30/10. Treatment was continued for at least 4-5 weeks.
Animals were observed daily for side effects and changes to the test sites. All observations were documented. Test sites were graded weekly for changes in skin color and hair growth. In this study drug effects were evaluated using the visual observation of skin changing from pink to gray and resulting in hair growth.

C[C@@H](NC(=NC#N)Nc1ccc(C#N)cc1)C(C)(C)C [Example 1, (R)-4-[[(Cyanoimino)[(1,2,2-trimethylpropyl)amino]-methyl]amino]benzonitrile]
melting point: 159 to 160 °C | IC50 (Vasorelaxant potency): 47 ± 17 nM | onset of action compared to the corresponding enantiomer (C3H mice; C3H mice, versus (S)-enantiomer): faster onset of action | percent of animals showing hair follicle stimulation (C3H mice; by day 11 of treatment): 40% | percent of animals showing hair follicle stimulation (C3H mice; by day 14): 50% | percent of animals showing hair follicle stimulation (C3H mice; by day 28): 85% | time of onset of follicle stimulation (C3H mice): 7 days | hair growth promoting ability relative to the (S)-enantiomer (C3H mice; producing hair growth within 11 days of treatment): 8 times | incidence of hair follicle stimulation compared to the other enantiomer (C3H mice; throughout the treatment period, versus Example 2-(S)-enantiomer): higher incidence of hair follicle stimulation

C[C@H](NC(=NC#N)Nc1ccc(C#N)cc1)C(C)(C)C [Example 2, (S)-4-[[(Cyanoimino)[(1,2,2-trimethylpropyl)amino]-methyl]amino]benzonitrile]
melting point: 158 to 159 °C | IC50 (Vasorelaxant potency): 157 ± 35 nM | percent of animals showing hair follicle stimulation (C3H mice; by day 11 of treatment): 5% | percent of animals showing hair follicle stimulation (C3H mice; by day 14): 25% | percent of animals showing hair follicle stimulation (C3H mice; by day 28): 65% | time of onset of follicle stimulation (C3H mice): 11 days
